Data: PMC10287695, “Non-covalent inhibitors of thioredoxin glutathione reductase with schistosomicidal activity in vivo” (Nature Communications, 2023)
“And” between values parts separate entries of the source, which are not always exact repeats. Equal entries are not always repeated. Where two headings read alike, the source gives them in different places.

Target: T1, TGR (Schistosoma mansoni, UniProt Q962Y6)
T1 construct: made in house
T1 sequence (Q962Y6 1-598): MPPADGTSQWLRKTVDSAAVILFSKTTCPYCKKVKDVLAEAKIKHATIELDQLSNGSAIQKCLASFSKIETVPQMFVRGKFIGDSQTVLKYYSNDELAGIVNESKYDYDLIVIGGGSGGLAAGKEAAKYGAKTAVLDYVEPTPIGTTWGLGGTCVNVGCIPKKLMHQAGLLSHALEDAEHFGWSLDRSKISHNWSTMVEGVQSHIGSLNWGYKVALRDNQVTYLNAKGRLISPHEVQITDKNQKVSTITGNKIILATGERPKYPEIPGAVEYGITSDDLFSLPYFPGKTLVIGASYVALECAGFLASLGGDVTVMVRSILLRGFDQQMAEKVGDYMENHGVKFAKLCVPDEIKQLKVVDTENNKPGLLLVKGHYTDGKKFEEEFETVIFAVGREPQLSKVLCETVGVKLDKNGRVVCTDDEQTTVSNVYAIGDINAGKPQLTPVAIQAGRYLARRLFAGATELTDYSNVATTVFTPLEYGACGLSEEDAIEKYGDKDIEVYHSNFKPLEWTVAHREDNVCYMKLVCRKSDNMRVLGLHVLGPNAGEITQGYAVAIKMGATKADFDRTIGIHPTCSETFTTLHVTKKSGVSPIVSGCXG
Format: biochemical, S. mansoni
Conditions: for mode of inhibition (NADPH varied): steady state
Method: Master mixes with varying concentrations of NADPH were made, each with 2 nM TGR in reaction buffer. Inhibitor (2 µl) was added to a 96 well microplate in triplicate for each NADPH and inhibitor concentration, and 192 µl of the master buffer was added to each well. The reaction incubated for 15 min and 6 µl of 50 mM DTNB was added to each well. The kinetic rate was measured at A412 for 5 min.

[1] = inhibitor 3 µM, NADPH 3 (unit not given)
[2] = inhibitor 3 µM, NADPH 10 (unit not given)
[3] = inhibitor 3 µM, NADPH 30 (unit not given)
[4] = inhibitor 3 µM, NADPH 100 (unit not given)
[5] = inhibitor 3 µM, NADPH 300 (unit not given)
[6] = inhibitor 10 µM, NADPH 3 (unit not given)
[7] = inhibitor 10 µM, NADPH 10 (unit not given)
[8] = inhibitor 10 µM, NADPH 30 (unit not given)
[9] = inhibitor 10 µM, NADPH 100 (unit not given)
[10] = inhibitor 10 µM, NADPH 300 (unit not given)
[11] = inhibitor 30 µM, NADPH 3 (unit not given)
[12] = inhibitor 30 µM, NADPH 10 (unit not given)
[13] = inhibitor 30 µM, NADPH 30 (unit not given)
[14] = inhibitor 30 µM, NADPH 100 (unit not given)
[15] = inhibitor 30 µM, NADPH 300 (unit not given)
[16] = inhibitor 1 µM, NADPH 5 (unit not given)
[17] = inhibitor 1 µM, NADPH 10 (unit not given)
[18] = inhibitor 1 µM, NADPH 30 (unit not given)
[19] = inhibitor 1 µM, NADPH 100 (unit not given)
[20] = inhibitor 3 µM, NADPH 5 (unit not given)

For Cc1oc(-c2ccccc2)nc1CN[C@@H]1C[C@@H]2C[C@H]([C@H]1C)C2(C)C [Compound 3], the Vmax (70 µM inhibitor, 6 hr preincubation) was 0.0086 ± 0.0003 ΔA412/min, the avg rate (NADPH 3 µM, 35 µM compound) was 0.003992 and the avg rate (NADPH 3 µM, 50 µM compound) was 0.003778. For the same molecule, the avg rate (NADPH 3 µM, 70 µM compound) was 0.003468, the avg rate (NADPH 10 µM, 35 µM compound) was 0.007014 and the avg rate (NADPH 10 µM, 50 µM compound) was 0.006219. For the same molecule, the avg rate (NADPH 10 µM, 70 µM compound) was 0.005582, the avg rate (NADPH 30 µM, 35 µM compound) was 0.009551 and the avg rate (NADPH 30 µM, 50 µM compound) was 0.008305. It also gave an avg rate (NADPH 30 µM, 70 µM compound) of 0.007122, an avg rate (NADPH 100 µM, 35 µM compound) of 0.01022 and an avg rate (NADPH 100 µM, 50 µM compound) of 0.009229. For the same molecule, the avg rate (NADPH 100 µM, 70 µM compound) was 0.00846, the “mode of inhibition (NADPH varied)” value was “uncompetitive inhibition” and the “mode of inhibition (NADPH varied)” value (listed as 3 (8VP83)) was “uncompetitive behavior”.

With Cc1oc(C2CCCCC2)nc1C(=O)N[C@@H]1C[C@@H]2C[C@H]([C@H]1C)C2(C)C [Compound 7] the Vmax (3 µM fast inhibitor) was 0.037 ± 0.0031 ΔA412/min, the Vmax (10 µM fast inhibitor) was 0.023 ± 0.0006 ΔA412/min and the Vmax (30 µM fast inhibitor) was 0.005 ± 0.0004 ΔA412/min. The “Rate, single replicate” value [1] was 0.004865 and 0.004625 and 0.005262, the avg rate [1] was 0.004917 and the “Rate, single replicate” value [2] was 0.01865 and 0.01872 and 0.01883. For the same molecule, the avg rate [2] was 0.01873, the “Rate, single replicate” value [3] was 0.02703 and 0.02752 and 0.02778 and the avg rate [3] was 0.02744. For the same molecule, the “Rate, single replicate” value [4] was 0.03299 and 0.03283 and 0.0326, the avg rate [4] was 0.03281 and the “Rate, single replicate” value [5] was 0.02949 and 0.03026 and 0.03016. The avg rate [5] was 0.02997, the “Rate, single replicate” value [6] was 0.006166 and 0.006168 and 0.006055 and the avg rate [6] was 0.00613. The “Rate, single replicate” value [7] was 0.014 and 0.01379 and 0.01325, the avg rate [7] was 0.01368 and the “Rate, single replicate” value [8] was 0.01713 and 0.02008. The avg rate [8] was 0.01811, the “Rate, single replicate” value [9] was 0.02098 and 0.02124 and 0.02207 and the avg rate [9] was 0.02143. The “Rate, single replicate” value [10] was 0.009276 and 0.01989 and 0.01984, the avg rate [10] was 0.01634 and the “Rate, single replicate” value [11] was 0.002823 and 0.003641. The avg rate [11] was 0.003232, the “Rate, single replicate” value [12] was 0.004132 and 0.003931 and 0.003739 and the avg rate [12] was 0.003934. For the same molecule, the “Rate, single replicate” value [13] was 0.004888 and 0.004427 and 0.004285, the avg rate [13] was 0.004533 and the “Rate, single replicate” value [14] was 0.005567 and 0.005953 and 0.005104. For the same molecule, the avg rate [14] was 0.005541, the “Rate, single replicate” value [15] was 0.006433 and 0.00613 and 0.007161 and the avg rate [15] was 0.006575. The “mode of inhibition (NADPH varied)” value was “uncompetitive inhibition” and the “mode of inhibition (NADPH varied)” value (listed as 7 (9VP108)) was “uncompetitive behavior”.

With CC1C(NCc2cn(C3OCC(O)C(O)C3O)c3ccccc23)CC2CC1C2(C)C (centres unmarked) [Compound 9] the Vmax (10 µM fast inhibitor) was 0.012 ± 0.00012 ΔA412/min, the Vmax (30 µM fast inhibitor) was 0.0056 ± 0.00043 ΔA412/min and the Vmax (60 µM fast inhibitor) was 0.0033 ± 0.00024 ΔA412/min. The “Rate, single replicate” value [16] was 0.004595 and 0.004128 and 0.004463, the avg rate [16] was 0.004395 and the “Rate, single replicate” value [17] was 0.005356 and 0.005454 and 0.005186. The avg rate [17] was 0.005332, the “Rate, single replicate” value [18] was 0.00852 and 0.006935 and the avg rate [18] was 0.007727. The “Rate, single replicate” value [19] was 0.008379 and 0.007686 and 0.007654, the avg rate [19] was 0.007906 and the “Rate, single replicate” value [20] was 0.002898 and 0.002979 and 0.003645. The avg rate [20] was 0.003174, the “Rate, single replicate” value [2] was 0.003704 and 0.003359 and 0.003645 and the avg rate [2] was 0.003569. The “Rate, single replicate” value [3] was 0.005584, the avg rate [3] was 0.02094 and the “Rate, single replicate” value [4] was 0.004192 and 0.005 and 0.004489. The avg rate [4] was 0.00456, the “Rate, single replicate” value (inhibitor 10 µM, NADPH 5 (unit not given)) was 0.00023 and 0.001097 and 0.0005855 and the “Rate, single replicate” value [7] was 0.001061 and 0.0007127 and 0.0008019. The “Rate, single replicate” value [8] was 0.0004565 and 0.000593, the “Rate, single replicate” value [9] was 0.0001918 and 0.000912 and 1.594e-5 and the “mode of inhibition (NADPH varied)” value was “noncompetitive inhibition”.
